Reference: ChEMBL document CHEMBL1128577, “Synthesis and biological evaluation of novel 2,6-diaminobenz[cd]indole inhibitors of thymidylate synthase using the protein structure as a guide” (J Med Chem, 1995)

Key:
CCRF-CEM = assay: Compound is screened for cell growth inhibition against CCRF-CEM cell line, a human lymphoblastic leukemia line of T-cell origin; assay type: functional, cell-based
[1] = Compound is evaluated for thymidine shift. […]; assay type: functional
L1210 = assay: Compound is screened for cell growth inhibition against L1210 murine leukemia tumor cell line; assay type: functional, cell-based; conditions: Mus musculus
GC3/MTK- = assay: Compound is screened for cell growth inhibition against GC3/MTK-cell line, a human thymidine kinase deficient adenocarcinoma line; assay type: functional, cell-based
Thymidylate synthase [2] = target: Thymidylate synthase (Homo sapiens, UniProt P04818); assay: Inhibitory effect against recombinant human thymidylate synthase
Sequence of Thymidylate synthase (Homo sapiens, UniProt P04818) (P04818 whole entry): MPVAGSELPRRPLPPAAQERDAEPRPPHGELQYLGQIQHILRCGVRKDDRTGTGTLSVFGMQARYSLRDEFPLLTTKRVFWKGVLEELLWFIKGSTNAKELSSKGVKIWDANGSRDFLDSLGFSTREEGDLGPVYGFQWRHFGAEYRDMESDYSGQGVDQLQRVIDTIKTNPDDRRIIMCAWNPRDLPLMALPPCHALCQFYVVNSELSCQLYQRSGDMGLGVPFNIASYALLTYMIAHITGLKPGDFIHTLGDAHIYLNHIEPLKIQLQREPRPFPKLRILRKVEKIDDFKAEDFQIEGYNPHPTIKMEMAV

Thymidylate synthase [3] = target: Thymidylate synthase (Escherichia coli, UniProt C3SWJ7); assay: Inhibitory effect against Escherichia coli thymidylate synthase
Sequence of Thymidylate synthase (Escherichia coli, UniProt C3SWJ7) (C3SWJ7 whole entry): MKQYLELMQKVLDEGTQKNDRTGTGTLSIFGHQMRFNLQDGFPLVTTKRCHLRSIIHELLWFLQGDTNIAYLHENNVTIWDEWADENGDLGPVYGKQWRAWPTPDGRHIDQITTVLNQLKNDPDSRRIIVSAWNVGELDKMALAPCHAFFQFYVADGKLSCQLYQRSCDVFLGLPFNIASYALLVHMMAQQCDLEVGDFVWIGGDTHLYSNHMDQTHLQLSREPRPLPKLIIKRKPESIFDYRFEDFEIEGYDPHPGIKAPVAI

| SMILES | IC50 (CCRF-CEM) | Thymidine shift [1] | IC50 (L1210) | IC50 (GC3/MTK-) | Ki (Thymidylate synthase [2]) | Ki (Thymidylate synthase [3]) |
| --- | --- | --- | --- | --- | --- | --- |
| CNC1=Nc2ccc(N(C)Cc3ccncc3)c3c(C)ccc1c23 | 1100 nM | 4.1 | 210 nM | 3600 nM | 14 nM | – |
| CN(Cc1ccnc(CO)c1)c1ccc2c3c(cccc13)C(N)=N2 | 3000 nM | 6.9 | 1300 nM | 11000 nM | 18 nM | – |
| Cc1cc(CN(C)c2ccc3c4c(cccc24)C(N)=N3)ccn1 | 2300 nM | 2.1 | 1600 nM | 7900 nM | 14 nM | 1800 nM |
| Cc1ccc2c3c(ccc(N(C)Cc4ccncc4)c13)N=C2N | 440 nM | 2.3 | 160 nM | 1100 nM | 6 nM | 600 nM |
| CNC1=Nc2ccc(N(C)Cc3ccnnc3)c3cccc1c23 | 9000 nM | 1.9 | 6900 nM | 26000 nM | 310 nM | – |
| CCc1cc(CN(C)c2ccc3c4c(cccc24)C(N)=N3)ccn1 | 3000 nM | 2.8 | 1000 nM | 6500 nM | 25 nM | – |
| Cc1cc(CN(C)c2ccc3c4c(ccc(C)c24)C(N)=N3)ccn1 | 450 nM | 4.1 | 170 nM | 600 nM | 4 nM | – |
| Cc1ccc2c3c(ccc(N(C)Cc4ccnnc4)c13)N=C2N | 780 nM | 12.1 | 450 nM | 2100 nM | 10 nM | – |
| CNC1=Nc2ccc(N(C)Cc3ccnnc3)c3c(C)ccc1c23 | 3700 nM | 2.6 | 800 nM | 9900 nM | 30 nM | – |
| CNC1=Nc2ccc(N(C)Cc3ccncc3)c3cccc1c23 | 5100 nM | 2.6 | 1900 nM | 23000 nM | 270 nM | – |
| CN(Cc1ccc(S(=O)(=O)N2CCOCC2)cc1)c1ccc2c3c(cccc13)C(N)=N2 [METESIND] | – | – | – | – | 15 nM | 5400 nM |
| CN(Cc1ccnc(C(F)(F)F)c1)c1ccc2c3c(cccc13)C(N)=N2 | 5900 nM | 4.2 | 2100 nM | 12000 nM | 45 nM | – |
| CN(Cc1ccnc(Sc2ccccc2)c1)c1ccc2c3c(cccc13)C(N)=N2 | 2000 nM | 1.8 | 660 nM | 11500 nM | 52 nM | – |
| CN(Cc1ccnnc1)c1ccc2c3c(cccc13)C(N)=N2 | 4000 nM | 7.7 | 900 nM | 5000 nM | 15 nM | 18000 nM |
| CN(Cc1ccncc1)c1ccc2c3c(cccc13)C(N)=N2 | 2400 nM | 4.9 | 95 nM | 4800 nM | 17 nM | 6600 nM |
| CN(Cc1ccc(S(=O)(=O)N2CCOCC2)cc1)c1ccc2c3c(cccc13)C(=N)N2 | – | 6.7 | – | – | – | – |
